Experimental data: patent publication US20140335052A1, “COMBINATION THERAPY FOR TREATING HCV INFECTION IN AN HCV-HIV COINFECTED PATIENT POPULATION” (BOEHRINGER INGELHEIM INTERNATIONAL GMBH, priority 2012, published 2014)
Marks after values point to notes of the source that are not given here.

Legend:
HCV genotype 1 = experiment: Phase III trial of FDV plus PegIFN/RBV in HCV/HIV coinfected patients: virologic response (plasma HCV RNA), Week 12 interim data; type: in vivo, human; conditions: for Virologic response Week 4 BLD / Virologic response Week 12 BLD: HCV RNA <15 IU/mL, not detected; for Virologic response Week 4 BLQ / Virologic response Week 12 BLQ: HCV RNA <25 IU/mL; for Virologic response Week 4 BLQ: FDV 120 or 240 mg QD (dose blinded) plus PegIFN/RBV; for ETS (Week 4 BLQ and Week 8 BLD): early treatment success
Method: For the clinical trial described below, the Compound (1) drug product will be administered as a softgel capsule lipid-based formulation containing Compound (1) sodium salt. All references to “Compound (1)” in the below clinical study is the sodium salt form.
(§1) Safety and Efficacy of 120 mg and 240 mg Compound (1) Once Daily in Combination With Pegylated Interferon Alpha 2a (PegIFN) and Ribavirin (RBV) for Treatment of Chronic Hepatitis C (HCV) Genotype 1 Infection in HIV/HCV Co-infected Patients. A Multinational, Randomised, Parallel Group, Open-label Trial.
(§2) The aim of this trial is to evaluate the efficacy and the safety of Compound (1) given for 12 or 24 weeks in combination with PegIFN/RBV given for 24 or up to 48 weeks in HCV treatment-naive or relapsers patients coinfected with HIV. Patients who achieve reduction of HCV viral load according to Early Treatment Success (ETS) criteria will be randomized 1:1 to stop triple therapy at 24 weeks, or continue PegIFN/RBV for 48 week treatment duration. Patients without ETS continue PegIFN/RBV for 48 week treatment duration.
• Sustained Virological Response (SVR): Plasma Hepatitis C Virus (HCV) Ribonucleic Acid (RNA) level <25 IU/mL, undetected at week 12 after the planned treatment duration.
HCV RNA level<25 IU/mL (undetected) 24 weeks after the originally planned treatment duration. • Early Treatment Success (ETS): Plasma HCV RNA level<25 IU/mL (detected or undetected) at Week 4 and HCV RNA<25 IU/mL, undetected at Week 8 and have not discontinued any study drug prior to week 24. • Alanine Aminotransferase normalisation: Alanine Aminotransferase in normal range 24 weeks after the end of the originally planned treatment duration
Inclusion criteria (selected): • 1. Chronic hepatitis C (HCV) genotype 1 infection • 2. Chronic Human Immunodeficiency Virus (HIV)-1 infection • 3. HCV treatment naive or HCV treatment experienced but only relapsers • 4. Age 18 to 70 years • 5. […] HCV viral load >1.000 IU/mL • 7. No AIDS-defining illness during 6 months prior to screening Exclusion criteria (selected): • 1. HCV infection of mixed genotype (1/2, 1/3, 1/4) • 2. Evidence of acute or chronic liver […] • 3. Hepatitis B virus (HBV) infection with presence of HBs-Ag • 4. Active malignancy or history or malignancy within the last 5 years • 5. Received concomitant systemic antiviral (other than antiretroviral), hematopoietic growth factor or immunomodulatory treatment in 28 days prior enrollment. • 6. Decompensated liver disease, as evidenced by ascites, hepatic encephalopathy, esophageal variceal bleeding, and/or laboratory values that add up to >/=7 points according tho the Child-Turcotte-Pugh classification • 7. Hemoglobin </=11 g/dL for women and </=12 g/dL for men • 8. Active autoimmune disease, including autoimmune hepatitis • 9. Known hypersensitivity to any ingredient of the study drugs
(§3) Individuals co-infected with HCV/HIV who were HCV treatment-naïve (TN) or relapsed after previous HCV therapy were randomized to receive FDV 120 or 240 mg QD for 12 or 24 weeks, in combination with PegIFN (180 μg once weekly) and weight-based RBV for 24 or 48 weeks (response-guided). Patients on efavirenz- or PI-based antiretroviral therapy (ART) were allocated to receive FDV 240 mg or 120 mg QD, respectively; those receiving other ART or no ART were randomized to either FDV dose. Interim data remains blinded for FDV dose. Week 12 interim data are presented.

[1] = Phase III trial of FDV plus PegIFN/RBV in HCV/HIV coinfected patients: safety (adverse events, HIV RNA suppression); type: in vivo, human
Method: as §1, §2, §3
HCV RNA was BLD at Week 4/Week 12 in 64%/64% of patients not on ART, and in 63%/85% of patients receiving ART. […] For example, in a prior study in HCV GT1 mono-infected TN patients treated with 240 mg QD FDV plus PegIFN/RBV (Boehringer Ingelheim, data on file, Clinical Trial Report for study 1220.5, U12-2567-01), HCV RNA was BLQ at week 4 and BLD at week 12 in 94% (133/142) and 93% (132/142) of patients, respectively. […] These preliminary on-treatment efficacy data are promising given that a) 17% of the coinfected patients had cirrhosis (patients with cirrhosis were not included in the 1220.5 study), b) preliminary efficacy data in HCV/HIV coinfected represent sponsor-blinded results of both FDV dose groups (e.g., 120 mg QD and 240 mg QD FDV), and c) the HCV GT1/HIV co-infected patient population is historically a more difficult-to-treat patient population with substantially lower HCV cure rates with the current standard of care treatment of pegIFN and RBV when compared to HCV GT1 monoinfected patients. The most frequent adverse events (AEs) were those known for PegIFN/RBV treatment: nausea (37%), fatigue (33%) and diarrhea (27%). Serious AEs were reported in 32 (10%) patients (including 2 deaths; none considered related to study medications). To date, 18 patients discontinued early due to AEs.

HCV GT1 = HCV GT1 mono-infected TN patients; 240 mg QD FDV plus PegIFN/RBV; study 1220.5; cited from earlier work
[2] = HCV/HIV co-infected TN patient population, interim data restated in text, FDV plus PegIFN/RBV
[3] = Relapsers (N = 69), FDV plus PegIFN/RBV
[4] = TN patients (N = 239), FDV plus PegIFN/RBV
[5] = Total (N = 308), FDV plus PegIFN/RBV
[6] = patients not on ART, FDV plus PegIFN/RBV
[7] = patients receiving ART, FDV plus PegIFN/RBV
[8] = HCV/HIV coinfected patients (308 treated), interim

For `C=C[C@@H]1C[C@]1(NC(=O)[C@@H]1C[C@@H](Oc2cc(-c3csc(C(=O)NC(C)C)n3)nc3c(Br)c(OC)ccc23)CN1C(=O)[C@@H](NC(=O)OC1CCCC1)C(C)(C)C)C(=O)O` [FDV, 1-{[4-[8-Bromo-2-(2-isopropylcarbamoyl-thiazol-4-yl)-7-methoxy-quinolin-4-yloxy]-1-(R)-(2-cyclopentyloxycarbonylamino-3,3-(S)-dimethyl-butyryl)-pyrrolidine-(S)-2-carbonyl]-amino}-2-(S)-vinyl-cyclopropane-(R)-carboxylic acid], the “Early virologic response rates” value (HCV genotype 1; HCV GT1 patients coinfected with HIV, Weeks 4 and 12, FDV plus PegIFN/RBV, interim analysis) was “high early virologic response rates”, the “HCV RNA BLD at week 12, patients” value (HCV genotype 1; [2]) was 82% and the “HCV RNA BLQ at week 4, patients” value (HCV genotype 1; [2]) was 80%. The “Virologic response Week 4 BLD” value (HCV genotype 1; [3]) was 51 (74) n (%), the “Virologic response Week 12 BLD” value (HCV genotype 1; [3]) was 63 (91) n (%) and the “Virologic response Week 4 BLQ” value (HCV genotype 1; Relapsers (N = 69)) was 63 (91)^b n (%). For the same compound, the “Virologic response Week 12 BLQ” value (HCV genotype 1; [3]) was 64 (93)^d n (%), the “ETS (Week 4 BLQ and Week 8 BLD)” value (HCV genotype 1; [3]) was 61 (88) n (%) and the “Virologic response Week 4 BLD” value (HCV genotype 1; [4]) was 143 (60) n (%). The “Virologic response Week 12 BLD” value (HCV genotype 1; [4]) was 195 (82) n (%), the “Virologic response Week 4 BLQ” value (HCV genotype 1; TN patients (N = 239)) was 191 (80)^a n (%) and the “Virologic response Week 12 BLQ” value (HCV genotype 1; [4]) was 206 (86)^c n (%). The “ETS (Week 4 BLQ and Week 8 BLD)” value (HCV genotype 1; [4]) was 184 (77)^e n (%), the “Virologic response Week 4 BLD” value (HCV genotype 1; [5]) was 194 (63) n (%) and the “Virologic response Week 12 BLD” value (HCV genotype 1; [5]) was 258 (84) n (%). For the same compound, the “Virologic response Week 4 BLQ” value (HCV genotype 1; Total (N = 308)) was 254 (82) n (%), the “Virologic response Week 12 BLQ” value (HCV genotype 1; [5]) was 270 (88) n (%) and the “ETS (Week 4 BLQ and Week 8 BLD)” value (HCV genotype 1; [5]) was 245 (80) n (%). The “HCV RNA BLD at Week 4, patients” value (HCV genotype 1; [6]) was 64%, the “HCV RNA BLD at week 12, patients” value (HCV genotype 1; [6]) was 64% and the “HCV RNA BLD at Week 4, patients” value (HCV genotype 1; [7]) was 63%. The “HCV RNA BLD at week 12, patients” value (HCV genotype 1; [7]) was 85%, the “Adverse event: diarrhea” value [1, 8] was 27% and the “Adverse event: fatigue” value [1, 8] was 33%. For the same compound, the “Adverse event: nausea” value [1, 8] was 37%, the “Serious AEs reported, number of patients” value [1, 8] was 32 patients and the “Serious AEs reported, share of patients” value [1, 8] was 10%. For the same compound, the “Deaths (among serious AEs; none considered related to study medications)” value ([1]; HCV/HIV coinfected patients, interim) was 2 deaths, the “Patients discontinued early due to AEs” value ([1]; HCV/HIV coinfected patients, to date (interim)) was 18 patients and the “Loss of HIV RNA suppression” value ([1]; patients on ART) was “No patient on ART experienced loss of HIV RNA suppression”. The “HCV RNA BLD at week 12, number of patients of total” value (HCV GT1) was 132/142, the “HCV RNA BLD at week 12, patients” value (HCV GT1) was 93% and the “HCV RNA BLQ at week 4, number of patients of total” value (HCV GT1) was 133/142. The “HCV RNA BLQ at week 4, patients” value (HCV GT1) was 94%.
